Results from PMC11502347 (Frontiers in Microbiology, 2024).
≈ marks a conversion by molar mass, not a printed value.

Assays:
Mtb CF 61 (MDR) = type: cell-based, Mycobacterium tuberculosis; details: MDR clinical isolate; REMA, 7 days
Mtb CF 48 (MDR) = type: cell-based, Mycobacterium tuberculosis; details: MDR clinical isolate; REMA, 7 days
Mtb CF 165 (MDR) = type: cell-based, Mycobacterium tuberculosis; details: MDR clinical isolate; REMA, 7 days
Mtb CF 171 (MDR) = type: cell-based, Mycobacterium tuberculosis; details: MDR clinical isolate; REMA, 7 days
Mtb CF 162 (MDR) = type: cell-based, Mycobacterium tuberculosis; details: MDR clinical isolate; REMA, 7 days
Mtb CF 105 (MDR) = type: cell-based, Mycobacterium tuberculosis; details: MDR clinical isolate; REMA, 7 days
Mtb CF 169 (Pre-XDR) = type: cell-based, Mycobacterium tuberculosis; details: Pre-XDR clinical isolate; REMA, 7 days
Mtb CF 81 (Pre-XDR) = type: cell-based, Mycobacterium tuberculosis; details: Pre-XDR clinical isolate; REMA, 7 days
Mtb H37Rv [1] = assay: microbe, parasite or virus in culture; type: cell-based, Mycobacterium tuberculosis; details: for CIM90 Mtb H37Rv: Sensitive strain, REMA, 7 days; for MIC90: Mycobacterium tuberculosis, H37RV, Table 3
M. smegmatis = type: cell-based, Mycobacterium smegmatis; details: Sensitive; REMA, 2 days
M. bovis = type: cell-based, Mycobacterium bovis; details: Sensitive; REMA, 7 days
[2] = test system: Klebsiella pneumoniae subsp. pneumoniae ATCC 13883 T; assay: microbe, parasite or virus in culture; type: cell-based; details: ATCC13883
[3] = test system: Klebsiella oxytoca CCT 0182; assay: microbe, parasite or virus in culture; type: cell-based; details: CCT0182
[4] = test system: Staphylococcus saprophyticus subsp. saprophyticus ATCC 15305; assay: microbe, parasite or virus in culture; type: cell-based; details: ATCC15305
[5] = test system: Staphylococcus epidermidis ATCC 14990 T; assay: microbe, parasite or virus in culture; type: cell-based; details: ATCC14990
[6] = test system: Enterobacter cloacae subsp. cloacae ATCC 13883 T; assay: microbe, parasite or virus in culture; type: cell-based; details: ATCC13883
[7] = test system: Enterobacter aerogenes ATCC 13048 T; assay: microbe, parasite or virus in culture; type: cell-based; details: Klebsiella aerogenes, ATCC13048
[8] = test system: Enterococcus faecium NCTC 7171 T; assay: microbe, parasite or virus in culture; type: cell-based; details: NCTC7171
[9] = test system: Enterococcus faecalis ATCC 29212; assay: microbe, parasite or virus in culture; type: cell-based; details: ATCC29212
[10] = test system: Proteus mirabilis ATCC 29906 T; assay: microbe, parasite or virus in culture; type: cell-based; details: ATCC29906
[11] = test system: Citrobacter freundii ATCC 8030 T; assay: microbe, parasite or virus in culture; type: cell-based; details: ATCC8030
[12] = test system: Candida albicans ATCC 90028; assay: microbe, parasite or virus in culture; type: cell-based; details: ATCC90028, Sabouraud broth, 48 h
[13] = test system: Gram-negative, Gram-positive bacteria, and fungi, including Candida albicans; assay: microbe, parasite or virus in culture; type: cell-based; details: all the bacterial and fungal strains tested (Table 2), read-out: MIC90 for all species analyzed
[14] = test system: Murine macrophage J774.A1; assay: cells; type: cell-based; details: Mus musculus, cytotoxicity, resazurin, exposure 24 and 72 h, which one not given
MRC-5 fibroblasts = assay: cells; type: cell-based; details: Homo sapiens, MRC5; cytotoxicity, resazurin; exposure 24 and 72 h, which one not given
Mtb H37Rv [15] = assay: Checkerboard assay of Bfx with RFP; type: cell-based, Mycobacterium tuberculosis; details: for MIC90: Mycobacterium tuberculosis, H37RV, compound alone, Table S1
Protocol: To evaluate the interaction between Bfx and RFP, a checkerboard assay was conducted following the methodology proposed by Berenbaum ([Berenbaum, 1978]).Test compounds were serially diluted in Middlebrook 7H9 broth and arranged in a 96-well plate, starting with 2x MIC for each compound. RFP was also diluted horizontally based on its MIC90. The combinations of different concentrations of Bfx and RFP were incubated with Mtb (5 × 10⁵ CFU/mL) at 37°C and 5% CO₂ for 7 days. Post-incubation, 0.01% resazurin was added, and fluorescence readings were taken after 24 h to determine the Fractional Inhibitory Concentration Index (FICI). The combined effects of the compound combinations were classified according to the Fractional Inhibitory Concentration Index (FICI):
FICI=MICofdrug1incombination/MICofdrug1+MICofdrug2incombination/MICofdrug1

[16] = test system: intracellular Mtb H37Rv in J774.A1 macrophages; assay: Intracellular antimycobacterial activity in infected macrophages; type: cell-based, Mycobacterium tuberculosis; details: 10x MIC, 72 h, CFU count
Protocol: Murine macrophage J774.A1 cells (1 × 10^6 cells/mL) were seeded in 24-well plates and incubated as previously described. After 24 h, the supernatant was discarded, and 1 mL of Mtb inoculum (2 × 10^6 CFU/mL) was added to the wells. The plate was incubated for 2 h to facilitate infection. Subsequently, the supernatant was removed, and the cells were washed with PBS. An amikacin solution (200 μg/mL) was added to ensure the sterility of the extracellular environment. After 2 h, the wells were washed, and treatments were applied (1x, 5x, and 10x MIC90 of Bfx or RFP). The cultures were then incubated for 72 h. After incubation, the cells were lysed using a Triton solution, and the supernatant was collected, serially diluted, and plated on Middlebrook 7H11 medium supplemented with 10% OADC. These plates were incubated for 20–30 days until colony-forming units (CFU) were counted ([Solcia et al., 2021]).

Mtb H37Rv [17] = assay: In vivo infection and treatment, BALB/c mice; details: daily oral 4 weeks, 5n 200 mg/kg, RFP 15 mg/kg; for reduction of bacterial load in the lungs: intranasal infection, 5b; for reduction of the pulmonary load: abstract
intramacrophagic Mtb = test system: intramacrophagic Mtb; design: method as in Matsumoto et al. (2006); details: at a concentration of 1 μg/mL; experimental conditions not identical; ref Matsumoto et al. (2006); cited from earlier work

SMILES | CIM90 CF 61 (Mtb CF 61 (MDR)) | CIM90 CF 48 (Mtb CF 48 (MDR)) | CIM90 CF 165 (Mtb CF 165 (MDR)) | CIM90 CF 171 (Mtb CF 171 (MDR)) | CIM90 CF 162 (Mtb CF 162 (MDR)) | CIM90 CF 105 (Mtb CF 105 (MDR)) | CIM90 CF 169 (Mtb CF 169 (Pre-XDR)) | CIM90 CF 81 (Mtb CF 81 (Pre-XDR)) | CIM90 Mtb H37Rv (Mtb H37Rv [1]) | CIM90 M. smegmatis (M. smegmatis) | CIM90 M. bovis (M. bovis) | MIC90 (Mtb H37Rv [1]) [µM] | MIC90 [2] [µM] | MIC90 [3] [µM] | MIC90 [4] [µM] | MIC90 [5] [µM] | MIC90 [6] [µM] | MIC90 [7] [µM] | MIC90 [8] [µM] | MIC90 [9] [µM] | other results
NCC[C@H](O)C(=O)N[C@@H]1C[C@H](N)[C@@H](O[C@H]2O[C@H](CN)[C@@H](O)[C@H](O)[C@H]2O)[C@H](O)[C@H]1O[C@H]1O[C@H](CO)[C@@H](O)[C@H](N)[C@H]1O [AMK, amikacin] | > 42,69 μM | 12,27 ± 6,77 μM | 5,33 ± 0,95 μM | 0,24 ± 0,10 μM | > 42,69 μM | 7,54 ± 11,48 μM | 0,36 ± 0,11 μM | 19,52 ± 12,55 μM | 3,0 ± 1,00 μM | 6,0 ± 2,00 μM | 1,5 ± 0,50 μM |  |  |  |  |  |  |  |  |  | 
O=C(Nc1ccc(N2CCSCC2)c(F)c1)c1ccc2no[n+]([O-])c2c1 [Compound 5b] | 0,28 ± 0,02 μM | 22,76 ± 13,20 μM |  |  |  | > 66,78 μM | 0,40 ± 0,03 μM | 0,27 ± 0,00 μM |  | 24,17 ± 13,00 μM |  | 0.7 (≈ 0.262 µg/mL) | > 200 | > 200 | > 200 | > 200 | > 200 | > 200 | > 200 | > 200 | MIC90 [10]: > 200 µM; MIC90 [11]: > 200 µM; MIC90 [12]: > 200 µM; MIC90 [13]: > 200 µM; IC50 [14]: 40.8 µM; IC50 (MRC-5 fibroblasts): 57.1 µM; FICI (Mtb H37Rv [15]; Bfx combined with RFP): 0.11; Results (interaction with RFP) (Mtb H37Rv [15]; Bfx combined with RFP): Synergistic (FICI values less than 0.5 indicate synergy); MIC90 (Mtb H37Rv [15]): 0.7 µM; MIC90 combined (Mtb H37Rv [15]; in the combination 5b + RFP): 0,0625 µM; inhibition of bacterial load within macrophages [16]: 2.3 log10; reduction of bacterial load in the lungs (Mtb H37Rv [17]): 1.45 log10
O=C(Nc1ccc(N2CCN(c3ccccn3)CC2)c(F)c1)c1ccc2no[n+]([O-])c2c1 [Compound 5n] | 0,56 ± 0,47 μM | 22.38 ± 9.37 µM | 1,84 ± 1,73 μM | 0,26 ± 0,05 μM | 2,24 ± 1,47 μM | > 57,26 μM |  | 1,68 ± 1,32 μM |  | 41,07 ± 10,05 μM | 27,03 ± 10,43 μM | 0.09 (≈ 0.0391 µg/mL) | > 200 | > 200 | > 200 | > 200 | > 200 | > 200 | > 200 | > 200 | MIC90 [10]: > 200 µM; MIC90 [11]: > 200 µM; MIC90 [12]: > 200 µM; MIC90 [13]: > 200 µM; IC50 [14]: > 230 µM; IC50 (MRC-5 fibroblasts): > 222 µM; Results (interaction with RFP) (Mtb H37Rv [15]; Bfx combined with RFP): Synergistic (FICI values less than 0.5 indicate synergy); MIC90 (Mtb H37Rv [15]): 0.09 µM; MIC90 combined (Mtb H37Rv [15]; in the combination 5n + RFP): 0,00578 µM; inhibition of bacterial load within macrophages [16]: 0.9 log10; reduction of the pulmonary load (Mtb H37Rv [17]): 3.0 log10 CFU/mL; reduction of bacterial load in the lungs (Mtb H37Rv [17]): 3.0 log10
NNC(=O)c1ccncc1 [INH, isoniazid] | > 182,30 μM | > 182,30 μM | 71,56 ± 24,71 μM | > 182,30 μM | > 182,30 μM | > 182,30 μM | > 182,30 μM | > 182,30 μM | 0,95 ± 0,43 μM | 2,0 ± 0,50 μM |  | 0.95 (≈ 0.13 µg/mL) | > 500 | > 500 | > 500 | > 500 | > 500 | > 500 | > 500 | > 500 | MIC90 [10]: > 500 µM; MIC90 [11]: > 500 µM; IC50 [14]: > 729 µM; IC50 (MRC-5 fibroblasts): > 729 µM
CC(=O)NC[C@H]1CN(c2ccc(N3CCOCC3)c(F)c2)C(=O)O1 [LNZ, linezolid] |  | 33,88 ± 1,27 μM | 0,95 ± 0,01 μM | 0,58 ± 0,02 μM | 0,41 ± 0,03 μM | 4,15 ± 0,52 μM | 0,95 ± 0,59 μM | 0,47 ± 0,32 μM | 0,5 ± 0,20 μM | 1,0 ± 0,20 μM | 0,25 ± 0,1 μM |  |  |  |  |  |  |  |  |  | 
CO[C@H]1/C=C/O[C@@]2(C)Oc3c(C)c(O)c4c(O)c(c(/C=N/N5CCN(C)CC5)c(O)c4c3C2=O)NC(=O)/C(C)=C\C=C\[C@H](C)[C@H](O)[C@@H](C)[C@@H](O)[C@@H](C)[C@H](OC(C)=O)[C@@H]1C [RFP, rifampicin] | > 30,38 μM | > 30,38 μM | > 30,38 μM | > 30,38 μM | > 30,38 μM | > 30,38 μM | 6,95 ± 0,19 μM | > 30,38 μM | 0,05 ± 0,01 μM | 1,21 ± 0,00 μM | 0,10 ± 0,01 μM | 0.05 (≈ 0.0411 µg/mL) | 5.1 (≈ 4.2 µg/mL) | 7.5 (≈ 6.17 µg/mL) | 0.009 (≈ 0.00741 µg/mL) | 0.001 (≈ 0.000823 µg/mL) | > 100 | > 100 | > 100 | 0.004 (≈ 0.00329 µg/mL) | MIC90 [10]: 19.4 µM (≈ 16 µg/mL); MIC90 [11]: 38.9 µM (≈ 32 µg/mL); IC50 [14]: > 122 µM; IC50 (MRC-5 fibroblasts): > 122 µM; MIC90 (Mtb H37Rv [15]): 0.05 µM; MIC90 combined (Mtb H37Rv [15]; in the combination 5b + RFP): 0,00098 µM; MIC90 combined (Mtb H37Rv [15]; in the combination 5n + RFP): 0,00098 µM; inhibition of bacterial load within macrophages [16]: 0.7 log10; reduction of the pulmonary load (Mtb H37Rv [17]): 1.23 log10 CFU/mL; reduction of bacterial load in the lungs (Mtb H37Rv [17]): 1.23 log10
C[C@]1(COc2ccc(N3CCC(Oc4ccc(OC(F)(F)F)cc4)CC3)cc2)Cn2cc([N+](=O)[O-])nc2O1 [delamanid] |  |  |  |  |  |  |  |  |  |  |  |  |  |  |  |  |  |  |  |  | intramacrophagic inhibition (intramacrophagic Mtb): 0.7 log₁₀ CFU/mL
O=[N+]([O-])c1cn2c(n1)OC[C@@H](OCc1ccc(OC(F)(F)F)cc1)C2 [pretomanid] |  |  |  |  |  |  |  |  |  |  |  |  |  |  |  |  |  |  |  |  | intramacrophagic inhibition (intramacrophagic Mtb): 0.2 log₁₀ CFU/mL
